Target: T1, progesterone receptor PR (PR-B) (Homo sapiens, UniProt P06401)
T1 sequence (P06401 1-933): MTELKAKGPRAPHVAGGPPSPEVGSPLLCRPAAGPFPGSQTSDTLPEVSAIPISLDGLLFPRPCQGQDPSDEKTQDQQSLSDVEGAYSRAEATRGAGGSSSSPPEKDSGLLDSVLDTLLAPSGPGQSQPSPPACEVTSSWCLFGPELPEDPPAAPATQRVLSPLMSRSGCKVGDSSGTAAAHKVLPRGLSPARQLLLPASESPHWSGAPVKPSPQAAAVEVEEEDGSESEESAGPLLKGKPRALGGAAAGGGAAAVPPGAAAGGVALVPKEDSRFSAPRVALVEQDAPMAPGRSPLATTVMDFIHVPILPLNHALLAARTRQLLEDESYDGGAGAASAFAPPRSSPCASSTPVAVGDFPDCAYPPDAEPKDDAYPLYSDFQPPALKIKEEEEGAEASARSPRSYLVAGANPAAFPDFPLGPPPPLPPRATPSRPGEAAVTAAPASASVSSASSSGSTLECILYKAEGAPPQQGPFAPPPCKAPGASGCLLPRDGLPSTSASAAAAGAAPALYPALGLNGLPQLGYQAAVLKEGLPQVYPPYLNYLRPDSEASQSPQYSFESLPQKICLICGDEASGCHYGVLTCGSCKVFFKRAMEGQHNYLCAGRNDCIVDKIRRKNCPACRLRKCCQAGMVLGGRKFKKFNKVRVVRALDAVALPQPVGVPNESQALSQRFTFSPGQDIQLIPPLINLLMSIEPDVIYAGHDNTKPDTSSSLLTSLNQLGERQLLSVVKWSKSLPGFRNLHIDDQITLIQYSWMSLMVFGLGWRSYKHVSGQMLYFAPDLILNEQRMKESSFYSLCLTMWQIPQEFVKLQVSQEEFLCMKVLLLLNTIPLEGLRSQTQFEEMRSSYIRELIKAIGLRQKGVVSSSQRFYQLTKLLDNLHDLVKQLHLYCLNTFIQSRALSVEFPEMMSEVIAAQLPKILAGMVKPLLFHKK
Test: Transactivation assay, antagonism on the progesterone receptor PR
Format: cell-based
Conditions: transactivation test for antagonistic activity on (PR-B)
Protocol: Antagonism on the progesterone receptor PR
The transactivation assay is carried out as described in WO 02/054064.

| IC50 | Structure (SMILES) |
| --- | --- |
| 32 nM | CC(=O)c1ccc(C(O)(Cc2ccccc2)C(=O)Nc2ccc3c(=O)onc(C)c3c2)cc1 (racemic) [Example 55f, rac-6-[2-hydroxy-2-(4-acetylphenyl)-3-phenylpropionylamino]-4-methyl-2,3-benzoxazin-1-one] |
| 50 nM | Cc1noc(=O)c2ccc(NC(=O)C(O)(Cc3ccccc3)c3ccc(N(C)C)cc3)cc12 (racemic) [Example 48d, rac-6-[2-hydroxy-2-(4-dimethylaminophenyl)-3-phenylpropionylamino]-4-methyl-2,3-benzoxazin-1-one] |
| 3.2 nM | Cc1noc(=O)c2ccc(NC(=O)C(O)(Cc3ccccc3)c3ccc(C(C)(C)C)cc3)cc12 (racemic) [Example 45c, rac-6-[2-hydroxy-2-(4-(1,1-dimethylethyl)phenyl)-3-phenylpropionylamino]-4-methyl-2,3-benzoxazin-1-one] |
| 30 nM | Cc1noc(=O)c2ccc(NC(=O)C(O)(C#Cc3ccccc3)c3ccccc3)cc12 (racemic) [Example 1b, rac-6-[2,4-diphenyl-2-hydroxybut-3-ynoylamino]-4-methyl-2,3-benzoxazin-1-one] |
| 8.9 nM | Cc1noc(=O)c2ccc(NC(=O)C(O)(Cc3ccccc3)c3cccs3)cc12 (racemic) [Example 64b, rac-6-[2-hydroxy-2-(thiophen-2-yl)-3-phenylpropionylamino]-4-methyl-2,3-benzoxazin-1-one] |
| 39.8 nM | Cc1noc(=O)c2ccc(NC(=O)C(O)(Cc3ccccc3)c3ccc(-c4cccs4)cc3)cc12 (racemic) [Example 75, rac-6-[2-hydroxy-2-(4-thiophen-2-ylphenyl)-3-phenylpropionylamino]-4-methyl-2,3-benzoxazin-1-one] |
| 5 nM | Cc1noc(=O)c2ccc(NC(=O)C(O)(Cc3ccccc3)c3ccccc3)cc12 (racemic) [Example 5, rac-6-[2-hydroxy-2,3-diphenylpropionylamino]-4-methyl-2,3-benzoxazin-1-one] |
| 5 nM | Cc1noc(=O)c2ccc(NC(=O)C(O)(Cc3ccccc3)c3ccc([N+](=O)[O-])cc3)cc12 (racemic) [Example 10, rac-6-[2-hydroxy-2-(4-nitrophenyl)-3-phenylpropionylamino]-4-methyl-2,3-benzoxazin-1-one] |

| Structure (SMILES) | IC50 |
| --- | --- |
| COc1ccc(C#CC(O)(C(=O)Nc2ccc(C#N)c(Cl)c2)c2ccccc2)cc1 (racemic) [Example 80] | 40 nM |
| N#Cc1ccc(NC(=O)C(O)(Cc2ccccc2)c2ccccc2)cc1Cl (racemic) [Example 29b, rac-N-(3-chloro-4-cyanophenyl)-2-hydroxy-2,3-diphenylpropionamide] | 40 nM |
| N#Cc1ccc(NC(=O)C(O)(Cc2ccccc2)c2ccccc2)cc1C(F)(F)F (racemic) [Example 34b, rac-N-(4-cyano-3-trifluoromethylphenyl)-2-hydroxy-2,3-diphenylpropionamide] | 71 nM |

From patent publication US20090075989A1, “NON-STEROIDAL PROGESTERONE RECEPTOR MODULATORS” (priority 2006, published 2009)
